Here are results for three molecules from BindingDB's records for PubMed 36473699 (Cnrs, 2022).

A word on the IC50: it is the concentration at which inhibition is half-maximal.

This experiment can be described thus: Inhibition of Mycobacterium smegmatis MC2 155 recombinant type II NADH dehydrogenase ndh expressed in Escherichia coli assessed as rate of NADH oxidation in the presence of an electron acceptor menadione.

Molecules are shown by their SMILES.

Take `CC(C)[C@H]1CO[C@]23CCN(Cc4ccc(C(F)(F)F)nc4)C[C@H]2CCC(=O)N13`: the IC50 turned out to be 88 nM.

In the case of `CC(C)[C@H]1CO[C@]23CCN(Cc4ccc(Cl)cc4)C[C@H]2CCC(=O)N13`, the 50% inhibitory concentration (IC50) came to 42 nM.

Take `COc1ccc(CN2CC[C@]34OC[C@H](C(C)C)N3C(=O)CC[C@@H]4C2)cc1`: the concentration for half-maximal inhibition (IC50) was 890 nM.
